The conditions of data set [1]: rcm bond, 12-membered ring, Grubbs II/pTsOH, DCM.
Data set [2] concerns the target purified human Factor XIa (Homo sapiens (Human), UniProt P03951). Put plainly: biochemical.
For data set [3], the target named is purified human plasma kallikrein (Homo sapiens (Human), UniProt P03952). The data set can be described thus: biochemical.
The conditions of data set [4]: rcm bond, 12-membered ring.
The mark [5] stands for this setting: from C=CC[C@H](NC(=O)OC(C)(C)C)c1cc(-c2ccccc2NC(=O)C(C=C)C(C)C)ccn1, Grubbs II (2 x 0.2 eq), microwave, DCE, 40.0 mM, […].

Structures can show the parent of a compound that is named as a salt. Where two headings read alike, the source gives them in different places.

Chain of purified human Factor XIa (P03951 whole entry, looked up): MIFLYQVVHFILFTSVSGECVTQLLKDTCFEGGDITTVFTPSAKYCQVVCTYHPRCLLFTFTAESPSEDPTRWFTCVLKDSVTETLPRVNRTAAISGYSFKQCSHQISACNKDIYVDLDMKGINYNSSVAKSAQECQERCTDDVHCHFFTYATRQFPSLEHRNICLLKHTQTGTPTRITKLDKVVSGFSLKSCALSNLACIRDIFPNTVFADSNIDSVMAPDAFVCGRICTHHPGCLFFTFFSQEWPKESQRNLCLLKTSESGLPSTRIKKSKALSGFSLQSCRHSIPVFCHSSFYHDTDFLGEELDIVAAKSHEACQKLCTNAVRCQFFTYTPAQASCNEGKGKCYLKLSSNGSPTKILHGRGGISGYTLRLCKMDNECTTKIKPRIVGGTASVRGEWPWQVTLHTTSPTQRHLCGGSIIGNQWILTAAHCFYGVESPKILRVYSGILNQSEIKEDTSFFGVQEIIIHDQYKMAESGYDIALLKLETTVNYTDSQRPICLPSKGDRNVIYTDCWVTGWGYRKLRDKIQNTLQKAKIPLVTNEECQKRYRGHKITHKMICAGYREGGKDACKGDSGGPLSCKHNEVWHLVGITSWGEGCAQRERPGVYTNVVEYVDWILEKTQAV
Chain of purified human Factor XIa (P03951 whole entry, looked up): as above
Chain of purified human plasma kallikrein (P03952 whole entry, looked up): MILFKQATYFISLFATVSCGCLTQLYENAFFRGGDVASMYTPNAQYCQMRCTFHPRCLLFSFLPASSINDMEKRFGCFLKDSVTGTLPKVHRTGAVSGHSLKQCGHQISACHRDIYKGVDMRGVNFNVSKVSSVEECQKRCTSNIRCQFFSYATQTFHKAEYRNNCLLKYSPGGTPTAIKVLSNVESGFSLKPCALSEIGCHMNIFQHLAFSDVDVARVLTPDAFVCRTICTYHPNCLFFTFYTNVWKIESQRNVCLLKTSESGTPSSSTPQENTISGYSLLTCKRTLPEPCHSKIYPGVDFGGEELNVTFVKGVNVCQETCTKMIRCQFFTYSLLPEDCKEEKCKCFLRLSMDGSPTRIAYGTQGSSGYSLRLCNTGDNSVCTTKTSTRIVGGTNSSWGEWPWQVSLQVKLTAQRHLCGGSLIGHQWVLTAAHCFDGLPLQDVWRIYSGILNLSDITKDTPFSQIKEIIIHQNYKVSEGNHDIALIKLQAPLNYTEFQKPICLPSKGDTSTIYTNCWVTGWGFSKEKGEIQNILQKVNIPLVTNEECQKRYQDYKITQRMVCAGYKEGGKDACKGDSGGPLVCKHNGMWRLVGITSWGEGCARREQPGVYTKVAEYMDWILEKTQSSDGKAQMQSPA
Chain of purified human plasma kallikrein (P03952 whole entry, looked up): as above

Regarding `COC(=O)Nc1ccc2c(c1)C(=O)NC/C=C/C[C@H](NC(=O)OC(C)(C)C)c1cc-2ccn1`, in data set [1] (from C=CCNC(=O)c1cc(NC(=O)OC)ccc1-c1ccnc([C@H](CC=C)NC(=O)OC(C)(C)C)c1, […], 3.0 h), the ring closure, yield after HPLC was 39.4%.

The Ki is a measure of affinity in units of concentration, obtained from inhibition or displacement. The low end stands for a stronger hold on the target, the high end for a looser hold on the target. In the case of `C[C@@H]1CCC[C@H](N2CCC(c3c(F)ccc(Cl)c3F)=CC2=O)c2cc(ccn2)-c2ccncc2NC1=O` [Example 72, (10R,14S)-14-[4-(3-Chloro-2,6-difluorophenyl)-6-oxo-1,2,3,6-tetrahydropyridin-1-yl]-10-methyl-5,8,16-triazatricyclo[13.3.1.0^2,7]nonadeca-1(19),2(7),3,5,15,17-hexaen-9-one, TFA Salt], the Ki was 8.67 nM in data set [2] and 19 nM in data set [3].

In the case of `C[C@@H]1/C=C/C[C@H](NC(=O)OC(C)(C)C)c2cc(ccn2)-c2ccccc2NC1=O`, the ring closure, isolated yield in data set [4] (from C=CC[C@H](NC(=O)OC(C)(C)C)c1cc(-c2ccccc2NC(=O)[C@H](C)C=C)ccn1, Grubbs II/pTsOH, DCM, 11.8 mM, 40.0 °C, 4.5 h) is 78%.

`COC(=O)c1ccc2c(c1)-c1cccc(c1)[C@@H](N1CC=C(c3c(F)ccc(Cl)c3F)CC1=O)CCC[C@@H](C)C(=O)N2` [Example 174, Methyl (10R,14S)-14-[4-(3-chloro-2,6-difluorophenyl)-2-oxo-1,2,3,6-tetrahydropyridin-1-yl]-10-methyl-9-oxo-8-azatricyclo[13.3.1.0^2,7]nonadeca-1(19),2,4,6,15,17-hexaene-4-carboxylate] came in with a Ki in data set [2] of over 625 nM.

The compound `CC(C)[C@H]1/C=C/C[C@H](NC(=O)OC(C)(C)C)c2cc(ccn2)-c2ccccc2NC1=O` had a ring closure, isolated yield in data set [4] (setting [5]) of 8.9%.

“tert-butyl N-[(10R,11Z,14S)-17-methoxy-5-[(methoxycarbonyl)amino]-10-methyl-9-oxo-8,16-diazatricyclo[13.3.1.0^2,7]nonadeca-1(19),2,4,6,11,15,17-heptaen-14-yl]carbamate and tert-butyl N-[(10R,11E,14S)-17-methoxy-5-[(methoxycarbonyl)amino]-10-methyl-9-oxo-8,16-diazatricyclo[13.3.1.0^2,7]nonadeca-1(19),2,4,6,11,15,17-heptaen-14-yl]carbamate as a Mixture”: the ring closure, yield after HPLC in data set [1] (8.5 mM) was found to be 29%.

Regarding `CC(C)[C@@H]1/C=C/C[C@H](NC(=O)OC(C)(C)C)c2cc(ccn2)-c2ccccc2NC1=O`, the ring closure, isolated yield in data set [4] (setting [5]) stood at 10.2%.

For the compound `COC(=O)c1ccc2c(c1)-c1cccc(c1)[C@@H](N1CC=C(c3c(Br)ccc(Cl)c3F)CC1=O)CCC[C@@H](C)C(=O)N2` [Example 176, Methyl (10R,14S)-14-[4-(6-bromo-3-chloro-2-fluorophenyl)-2-oxo-1,2,3,6-tetrahydropyridin-1-yl]-10-methyl-9-oxo-8-azatricyclo[13.3.1.0^2,7]nonadeca-1(19),2,4,6,15,17-hexaene-4-carboxylate], the Ki in data set [2] was over 625 nM.

`COC(=O)Nc1ccc2c(c1)NC(=O)[C@H](C)/C=C/C[C@H](NC(=O)OC(C)(C)C)c1nc-2cn1COCC[Si](C)(C)C` registered a ring closure, isolated yield in data set [4] (from C=CC[C@H](NC(=O)OC(C)(C)C)c1nc(-c2ccc(NC(=O)OC)cc2NC(=O)[C@H](C)C=C)cn1COCC[Si](C)(C)C, Grubbs II (0.4 eq)/pTsOH, DCM, 10.0 mM, 40.0 °C, 21.5 h) of 40.7%.
